# According to US9062024B2, “Nitrogen-containing heterocyclic compound and salt thereof, and a fungicide for agricultural and horticultural use” (Nippon Soda Co., Ltd., priority 2009, dated 2015):
row,melting point,Structure (SMILES)
1,201 to 202 °C,c1ccc2c(c1)NCCN=C2c1cnc2ccccc2c1
2,187 to 189 °C,CC(=O)N1CCN=C(c2cnc3ccccc3c2)c2ccccc21
3,115 to 116 °C,"CC1(C)CN=C(c2cnc3ccccc3c2)c2ccccc2C1 [Compound B2-3, 4,4-dimethyl-1-(3-quinolinyl)-4,5-dihydro-3H-2-benzazepine]"
4,121 to 123 °C,"CC1(C)CCN=C(c2cnc3ccccc3c2)c2ccccc21 [Compound B2-25, 5,5-dimethyl-1-(3-quinolinyl)-4,5-dihydro-3H-2-benzazepine]"
